Reference: US8143244B2, “Cyclopropyl fused indolobenzazepine HCV NS5B inhibitors” (Bristol-Myers Squibb Company, priority 2009, dated 2012)

Target: T1, HCV NS5B (Hepatitis C virus genotype 1b, UniProt Q9WMX2)
T1 construct: The protein was expressed with an 18 amino acid C-terminal truncation to enhance the solubility; made in house; host or cells: E. coli BL21(DE3)
Assay: HCV NS5B RdRp enzyme assay
Assay type: biochemical
Conditions: Table 1; HCV NS5B RdRp genotype 1b
Method: HCV NS5B RdRp cloning, expression, and purification. The cDNA encoding the NS5B protein of HCV, genotype 1b, was cloned into the pET21a expression vector. The protein was expressed with an 18 amino acid C-terminal truncation to enhance the solubility. The E. coli competent cell line BL21(DE3) was used for expression of the protein. Cultures were grown at 37° C. for ˜4 hours until the cultures reached an optical density of 2.0 at 600 nm. The cultures were cooled to 20° C. and induced with 1 mM IPTG. Fresh ampicillin was added to a final concentration of 50 μg/ml and the cells were grown overnight at 20° C.
Cell pellets (3L) were lysed for purification to yield 15-24 mgs of purified NS5B. The lysis buffer consisted of 20 mM Tris-HCl, pH 7.4, 500 mM NaCl, 0.5% triton X-100, 1 mM DTT, 1 mM EDTA, 20% glycerol, 0.5 mg/ml lysozyme, 10 mM MgCl2, 15 ug/ml deoxyribonuclease I, and Complete TM protease inhibitor tablets (Roche). After addition of the lysis buffer, frozen cell pellets were resuspended using a tissue homogenizer. To reduce the viscosity of the sample, aliquots of the lysate were sonicated on ice using a microtip attached to a Branson sonicator. The sonicated lysate was centrifuged at 100,000×g for 1 hr at 4° C. and filtered through a 0.2 μm filter unit (Corning).
The protein was purified using three sequential chromatography steps: Heparin sepharose CL-6B, polyU sepharose 4B, and Hitrap SP sepharose (Pharmacia). The chromatography buffers were identical to the lysis buffer but contained no lysozyme, deoxyribonuclease I, MgCl2 or protease inhibitor and the NaCl concentration of the buffer was adjusted according to the requirements for charging the protein onto the column. Each column was eluted with a NaCl gradient which varied in length from 5-50 column volumes depending on the column type. After the final chromatography step, the resulting purity of the enzyme is >90% based on SDS-PAGE analysis. The enzyme was aliquoted and stored at −80° C.
Standard HCV NS5B RdRp enzyme assay. HCV RdRp genotype 1b assays were run in a final volume of 60 μl in 96 well plates (Costar 3912). The assay buffer is composed of 20 mM Hepes, pH 7.5, 2.5 mM KCl, 2.5 mM MgCl2, 1 mM DTT, 1.6 U RNAse inhibitor (Promega N2515), 0.1 mg/ml BSA (Promega R3961), and 2% glycerol. All compounds were serially diluted (3-fold) in DMSO and diluted further in water such that the final concentration of DMSO in the assay was 2%. HCV RdRp genotype 1b enzyme was used at a final concentration of 28 nM. A polyA template was used at 6 nM, and a biotinylated oligo-dT12 primer was used at 180 nM final concentration. Template was obtained commercially (Amersham 27-4110). Biotinylated primer was prepared by Sigma Genosys. 3H-UTP was used at 0.6 μCi (0.29 μM total UTP). Reactions were initiated by the addition of enzyme, incubated at 30° C. for 60 min, and stopped by adding 25 μl of 50 mM EDTA containing SPA beads (4 μg/μl, Amersham RPNQ 0007). Plates were read on a Packard Top Count NXT after >1 hr incubation at room temperature.
Modified HCV NS5B RdRp enzyme assay. A modified enzyme assay was performed essentially as described for the standard enzyme assay except for the following: The biotinylated oligo dT12 primer was precaptured on streptavidin-coated SPA beads by mixing primer and beads in assay buffer and incubating at room temperature for one hour. Unbound primer was removed after centrifugation. The primer-bound beads were resuspended in 20 mM Hepes buffer, pH 7.5 and used in the assay at final concentrations of 20 nM primer and 0.67 μg/μl beads. Order of addition in the assay: enzyme (14 nM) was added to diluted compound followed by the addition of a mixture of template (0.2 nM), 3H-UTP (0.6 μCi, 0.29 μM), and primer-bound beads, to initiate the reaction; concentrations given are final. Reactions were allowed to proceed for 4 hours at 30° C.
IC50 values for compounds were determined using seven different [I]. […]

T1 sequence (Q9WMX2 2420-2992): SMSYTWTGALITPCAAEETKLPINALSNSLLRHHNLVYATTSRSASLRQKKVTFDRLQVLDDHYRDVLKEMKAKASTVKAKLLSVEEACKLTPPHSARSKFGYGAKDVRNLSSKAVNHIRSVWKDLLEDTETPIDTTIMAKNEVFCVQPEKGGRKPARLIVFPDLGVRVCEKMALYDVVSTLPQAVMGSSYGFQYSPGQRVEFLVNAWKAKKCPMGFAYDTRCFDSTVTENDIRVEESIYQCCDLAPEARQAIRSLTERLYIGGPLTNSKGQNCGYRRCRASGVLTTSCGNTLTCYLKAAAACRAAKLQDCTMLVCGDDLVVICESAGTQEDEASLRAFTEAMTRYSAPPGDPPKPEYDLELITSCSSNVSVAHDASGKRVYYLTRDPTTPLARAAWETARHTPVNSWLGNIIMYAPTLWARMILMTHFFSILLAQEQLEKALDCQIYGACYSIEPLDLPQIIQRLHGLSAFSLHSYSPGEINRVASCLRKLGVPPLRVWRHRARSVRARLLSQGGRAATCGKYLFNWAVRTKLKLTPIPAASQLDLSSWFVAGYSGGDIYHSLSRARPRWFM

**Q.** Which IC50 does the source give for `C=C(C)S(=O)(=O)NC(=O)c1ccc2c(C3CCCCC3)c3n(c2c1)C[C@@]1(C(=O)N2CC45COCC4(CN(C)C5)C2)C[C@H]1c1cc(OC)ccc1-3` (stereo partly shown) here?
**A.** 1.9 to 500 nM

**Q.** Which IC50 does the source give for `COc1ccc2c(c1)[C@@H]1C[C@]1(C(=O)N1CC34CNCC3(CN(C)C4)C1)Cn1c-2c(C2CCCCC2)c2ccc(C(=O)NS(=O)(=O)C(C)C)cc21` (stereo partly shown) here?
**A.** 1.9 to 500 nM

**Q.** For `COc1ccc2c(c1)C=C(C(=O)N1CC34CN(C)CC3(CN(C)C4)C1)Cn1c-2c(C2CCCCC2)c2ccc(C(=O)NS(=O)(=O)N(C)C)cc21` (stereo not shown), which IC50 is on record?
**A.** 1.9 to 500 nM

**Q.** With `COc1ccc2c(c1)C1CC1(C(=O)N1CC34CNCC3(CN(C)C4)C1)Cn1c-2c(C2CCCCC2)c2ccc(C(=O)NS(=O)(=O)N(C)C)cc21` (stereo not shown) as the molecule, how does the IC50 read?
**A.** 1.9 to 500 nM

**Q.** With `COc1ccc2c(c1)C1CC1(C(=O)N1CC34CN(C)CC3(CN(C)C4)C1)Cn1c-2c(C2CCCCC2)c2ccc(C(=O)NS(=O)(=O)N(C)C)cc21` (stereo not shown) as the molecule, how does the IC50 read?
**A.** 1.9 to 500 nM

**Q.** How did the IC50 turn out when `COc1ccc2c(c1)[C@@H]1C[C@]1(C(=O)N1CC34CN(C)CC3(CN(C)C4)C1)Cn1c-2c(C2CCCCC2)c2ccc(C(=O)NS(=O)(=O)C(C)C)cc21` (stereo partly shown) was run?
**A.** 1.9 to 500 nM

**Q.** `COc1ccc2c(c1)[C@@H]1C[C@]1(C(=O)N1CC34CNCC3(COC4)C1)Cn1c-2c(C2CCCCC2)c2ccc(C(=O)NS(=O)(=O)C(C)C)cc21` (stereo partly shown) was tested. Which IC50 did it give?
**A.** 1.9 to 500 nM

**Q.** `COc1ccc2c(c1)[C@@H]1C[C@]1(C(=O)N1CC34COCC3(CN(C)C4)C1)Cn1c-2c(C2CCCCC2)c2ccc(C(=O)NS(=O)(=O)C(C)C)cc21` (stereo partly shown) was tested. Which IC50 did it give?
**A.** 1.9 to 500 nM

**Q.** For `COc1ccc2c(c1)C1CC1(C(=O)N1CC34CNCC3(COC4)C1)Cn1c-2c(C2CCCCC2)c2ccc(C(=O)NS(=O)(=O)N(C)C)cc21` (stereo not shown), which IC50 is on record?
**A.** 1.9 to 500 nM

**Q.** How did the IC50 turn out when `COc1ccc2c(c1)C=C(C(=O)N1CC34CNCC3(COC4)C1)Cn1c-2c(C2CCCCC2)c2ccc(C(=O)NS(=O)(=O)N(C)C)cc21` (stereo not shown) was run?
**A.** 1.9 to 500 nM

**Q.** `COc1ccc2c(c1)C=C(C(=O)N1CC34CNCC3(COC4)C1)Cn1c-2c(C2CCCCC2)c2ccc(C(=O)NS(=O)(=O)C3CC3)cc21` (stereo not shown) was tested. Which IC50 did it give?
**A.** 1.9 to 500 nM

**Q.** With `COc1ccc2c(c1)C=C(C(=O)N1CC34COCC3(CN(C)C4)C1)Cn1c-2c(C2CCCCC2)c2ccc(C(=O)NS(=O)(=O)N(C)C)cc21` (stereo not shown) as the molecule, how does the IC50 read?
**A.** 1.9 to 500 nM

**Q.** For `COc1ccc2c(c1)C=C(C(=O)N1CC34COCC3(CN(C)C4)C1)Cn1c-2c(C2CCCCC2)c2ccc(C(=O)NS(=O)(=O)C3CC3)cc21` (stereo not shown), which IC50 is on record?
**A.** 1.9 to 500 nM

**Q.** With `CCN1CC23COCC2(C1)CN(C(=O)[C@]12C[C@H]1c1cc(OC)ccc1-c1c(C4CCCCC4)c4ccc(C(=O)NS(=O)(=O)C(C)C)cc4n1C2)C3` (stereo partly shown) as the molecule, how does the IC50 read?
**A.** 1.9 to 500 nM

**Q.** Which IC50 does the source give for `COc1ccc2c(c1)CC(C(=O)N1CC34CNCC3(COC4)C1)Cn1c-2c(C2CCCCC2)c2ccc(C(=O)NS(=O)(=O)C3CC3)cc21` (stereo not shown) here?
**A.** 1.9 to 500 nM

**Q.** `COc1ccc2c(c1)CC(C(=O)N1CC34CN(C)CC3(CN(C)C4)C1)Cn1c-2c(C2CCCCC2)c2ccc(C(=O)NS(=O)(=O)N(C)C)cc21` (stereo not shown) was tested. Which IC50 did it give?
**A.** 1.9 to 500 nM

**Q.** `COc1ccc2c(c1)C1CC1(C(=O)N1CC34COCC3(CN(C(C)=O)C4)C1)Cn1c-2c(C2CCCCC2)c2ccc(C(=O)NS(=O)(=O)CC(C)C)cc21` (stereo not shown) was tested. Which IC50 did it give?
**A.** 1.9 to 500 nM

**Q.** `COc1ccc2c(c1)CC(C(=O)N1CC34CNCC3(CN(C)C4)C1)Cn1c-2c(C2CCCCC2)c2ccc(C(=O)NS(=O)(=O)C3CC3)cc21` (stereo not shown) was tested. Which IC50 did it give?
**A.** 1.9 to 500 nM

**Q.** For `COc1ccc2c(c1)CC(C(=O)N1CC34COCC3(CN(C)C4)C1)Cn1c-2c(C2CCCCC2)c2ccc(C(=O)NS(=O)(=O)C3CC3)cc21` (stereo not shown), which IC50 is on record?
**A.** 1.9 to 500 nM

**Q.** With `COc1ccc2c(c1)[C@@H]1C[C@]1(C(=O)N1CC34COCC3(C1)CN(C1CC1)C4)Cn1c-2c(C2CCCCC2)c2ccc(C(=O)NS(=O)(=O)C(C)C)cc21` (stereo partly shown) as the molecule, how does the IC50 read?
**A.** 2.5 to 500 nM

**Q.** Which IC50 does the source give for `COc1ccc2c(c1)[C@@H]1C[C@]1(C(=O)N1CC34COCC3(C1)N(C(C)=O)C4)Cn1c-2c(C2CCCCC2)c2ccc(C(=O)NS(=O)(=O)N(C)C)cc21` (stereo partly shown) here?
**A.** 1.9 to 500 nM

**Q.** How did the IC50 turn out when `COc1ccc2c(c1)C=C(C(=O)N1CC34COCC3(C1)N(C(C)=O)C4)Cn1c-2c(C2CCCCC2)c2ccc(C(=O)NS(=O)(=O)N(C)C)cc21` (stereo not shown) was run?
**A.** 1.9 to 500 nM

**Q.** For `COc1ccc2c(c1)C1CC1(C(=O)N1CC34COCC3(CN(C)C4)C1)Cn1c-2c(C2CCCCC2)c2ccc(C(=O)NS(=O)(=O)N(C)C)cc21` (stereo not shown) [drawing 61], which IC50 is on record?
**A.** 1.9 to 500 nM

**Q.** How did the IC50 turn out when `COc1ccc2c(c1)[C@@H]1C[C@]1(C(=O)N1CC34COCC3(C1)N(C(C)=O)C4)Cn1c-2c(C2CCCCC2)c2ccc(C(=O)NS(=O)(=O)C(C)C)cc21` (stereo partly shown) [drawing 73] was run?
**A.** 1.9 to 500 nM

Same assay, conditions: Table 2; HCV NS5B RdRp genotype 1b

**Q.** How did the IC50 turn out when `COc1ccc2c(c1)C1CC1(C(=O)N1CC34CNCC3(CN(C)C4)C1)Cn1c-2c(C2CCCCC2)c2ccc(C(=O)NS(=O)(=O)C3CC3)cc21` (stereo not shown) was run?
**A.** 7.8 nM

**Q.** With `COc1ccc2c(c1)C1CC1(C(=O)N1CC34COCC3(CN(C)C4)C1)Cn1c-2c(C2CCCCC2)c2ccc(C(=O)NS(=O)(=O)N(C)C)cc21` (stereo not shown) [drawing 106] as the molecule, how does the IC50 read?
**A.** 8.79 nM

**Q.** With `COc1ccc2c(c1)[C@@H]1C[C@]1(C(=O)N1CC34COCC3(C1)N(C(C)=O)C4)Cn1c-2c(C2CCCCC2)c2ccc(C(=O)NS(=O)(=O)C(C)C)cc21` (stereo partly shown) [drawing 109] as the molecule, how does the IC50 read?
**A.** 3.1 nM

**Q.** Which IC50 does the source give for `COc1ccc2c(c1)[C@@H]1C[C@]1(C(=O)N1CC34COCC3(C1)N(C(C)=O)C4)Cn1c-2c(C2CCCCC2)c2ccc(C(=O)NS(=O)(=O)C(C)C)cc21` (stereo partly shown) [drawing 110] here?
**A.** 2.4 nM
